Data from patent publication US20090247559A1 (Exelixis, Inc., priority 2007, published 2009).
Read-outs that look alike come from different tables or passages of the source.

Tests used:
[1] = target: PIM (PIM-1, PIM-2, and/or PIM-3); experiment: PIM-1, PIM-2 and PIM-3 inhibition, biochemical chemiluminescence assays (Kinase Glo, IC50 determination); settings: Table 1 activity class; PIM refers to PIM-1, PIM-2, and/or PIM-3; read-out: PIM IC50 (Activity B)
CK2 = CK2 (Homo sapiens, UniProt P68400); experiment: CK2 inhibition, biochemical chemiluminescence holoenzyme assay (Kinase Glo, IC50 determination); settings: Table 1 activity class; symbol given only if active; read-out: CK2 IC50 (Activity C)
CK2, sequence (P68400 whole entry): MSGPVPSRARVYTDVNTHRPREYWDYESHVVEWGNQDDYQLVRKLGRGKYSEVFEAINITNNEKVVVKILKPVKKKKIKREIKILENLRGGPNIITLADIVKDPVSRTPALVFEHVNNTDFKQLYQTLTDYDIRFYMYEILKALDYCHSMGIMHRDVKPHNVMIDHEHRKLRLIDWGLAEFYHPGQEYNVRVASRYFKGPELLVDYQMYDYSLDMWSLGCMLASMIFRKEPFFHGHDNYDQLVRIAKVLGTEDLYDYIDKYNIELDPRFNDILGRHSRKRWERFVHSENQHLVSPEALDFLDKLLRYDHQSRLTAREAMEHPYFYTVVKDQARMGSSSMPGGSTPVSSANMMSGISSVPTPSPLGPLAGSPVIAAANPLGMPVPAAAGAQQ
CK2, sequence (P67870 whole entry partner): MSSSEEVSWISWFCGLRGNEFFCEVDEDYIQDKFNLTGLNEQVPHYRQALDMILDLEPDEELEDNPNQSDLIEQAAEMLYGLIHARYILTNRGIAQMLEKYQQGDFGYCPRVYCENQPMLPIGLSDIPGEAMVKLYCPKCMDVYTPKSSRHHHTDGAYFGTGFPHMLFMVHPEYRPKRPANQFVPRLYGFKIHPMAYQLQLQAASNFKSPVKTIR
Outline: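 Holoenzyme CK2 assay; compounds pre-incubated with substrate and enzyme, then reacted 150 min at 24-27° C. Remaining ATP measured as luminescence with Kinase Glo, and IC50 derived from the signal.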

CDC7 = CDC7 (Homo sapiens, UniProt O00311); experiment: CDC7 inhibition, biochemical chemiluminescence assay (Kinase Glo, IC50 determination)
CDC7, sequence (O00311 whole entry): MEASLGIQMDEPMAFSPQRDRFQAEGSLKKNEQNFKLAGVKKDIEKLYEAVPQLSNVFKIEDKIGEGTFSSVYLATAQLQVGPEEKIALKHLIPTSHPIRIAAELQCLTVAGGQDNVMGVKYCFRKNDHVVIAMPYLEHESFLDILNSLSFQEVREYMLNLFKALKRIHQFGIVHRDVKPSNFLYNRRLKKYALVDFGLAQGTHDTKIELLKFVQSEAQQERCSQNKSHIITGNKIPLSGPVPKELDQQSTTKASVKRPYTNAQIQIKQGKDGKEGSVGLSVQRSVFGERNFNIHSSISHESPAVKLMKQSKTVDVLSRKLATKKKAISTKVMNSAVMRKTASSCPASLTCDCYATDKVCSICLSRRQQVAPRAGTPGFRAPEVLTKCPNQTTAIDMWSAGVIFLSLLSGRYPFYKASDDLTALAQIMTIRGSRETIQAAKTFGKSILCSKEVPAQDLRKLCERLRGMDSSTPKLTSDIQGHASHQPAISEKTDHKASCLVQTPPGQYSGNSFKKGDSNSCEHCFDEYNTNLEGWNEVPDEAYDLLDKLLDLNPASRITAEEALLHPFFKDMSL
CDC7, sequence (Q9UBU7 whole entry partner): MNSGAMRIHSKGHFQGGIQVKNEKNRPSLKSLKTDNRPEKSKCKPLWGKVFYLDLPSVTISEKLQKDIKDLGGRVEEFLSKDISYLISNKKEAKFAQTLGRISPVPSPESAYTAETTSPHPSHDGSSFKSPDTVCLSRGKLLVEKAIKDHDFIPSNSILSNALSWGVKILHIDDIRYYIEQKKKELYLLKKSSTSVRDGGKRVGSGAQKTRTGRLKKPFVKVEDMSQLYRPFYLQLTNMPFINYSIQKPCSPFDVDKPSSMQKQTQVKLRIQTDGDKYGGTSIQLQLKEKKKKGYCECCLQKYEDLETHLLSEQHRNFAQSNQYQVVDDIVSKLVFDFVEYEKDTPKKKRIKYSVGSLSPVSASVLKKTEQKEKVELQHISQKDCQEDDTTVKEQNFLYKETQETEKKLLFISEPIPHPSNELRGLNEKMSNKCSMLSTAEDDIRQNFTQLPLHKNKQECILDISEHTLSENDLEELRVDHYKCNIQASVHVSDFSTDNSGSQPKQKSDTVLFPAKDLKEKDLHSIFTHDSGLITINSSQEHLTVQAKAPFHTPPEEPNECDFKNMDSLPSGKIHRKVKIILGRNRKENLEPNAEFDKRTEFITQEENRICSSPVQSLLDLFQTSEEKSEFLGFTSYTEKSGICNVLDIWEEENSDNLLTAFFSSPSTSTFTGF
Outline: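 CDC7 enzyme preincubated with compound 10 min at ambient temperature, then ATP mix in Tris Base added; reaction 90 min at 24-27 °C. Remaining ATP quantified by Kinase Glo luminescence to give IC50.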

[2] = Table 1 activity class, symbol given only if active, read-out: CDC7 IC50 (Activity A)
[3] = compounds in Table 1, read-out: CDC7 IC50 value

Row | Compound | IC50 [1] [µM] | IC50 (CK2) [µM] | IC50 (CDC7; [2]) [µM] | IC50 (CDC7; [3]) [µM]
1 | O=c1[nH]c(CN2CCC[C@H]2CO)nc2c1oc1ccc(Br)cc12 [Compound 366, 8-bromo-2-{[(2S)-2-(hydroxymethyl)pyrrolidin-1-yl]methyl}[1]benzofuro[3,2-d]pyrimidin-4(3H)-one] | < 10 | < 10 | < 10 | < 0.1
2 | O=c1[nH]c([C@@H]2Cc3ccccc3N2)nc2c1oc1ccc(Br)cc12 [Compound 510, 8-bromo-2-[(2S)-2,3-dihydro-1H-indol-2-yl][1]benzofuro[3,2-d]pyrimidin-4(3H)-one] | < 10 | < 10 | < 10 | 
3 | Nc1n[nH]c2cc(-c3nc4c(oc5ccc(Br)cc54)c(=O)[nH]3)c(Cl)cc12 [Compound 205, 2-(3-amino-5-chloro-1H-indazol-6-yl)-8-bromo[1]benzofuro[3,2-d]pyrimidin-4(3H)-one] | < 10 | < 10 | < 10 | 
4 | O=c1[nH]c(CN2CC[C@H](O)C2)nc2c1oc1ccc(Cl)cc12 [Compound 429, 8-chloro-2-{[(3S)-3-hydroxypyrrolidin-1-yl]methyl}[1]benzofuro[3,2-d]pyrimidin-4(3H)-one] | < 10 | < 10 | < 10 | < 0.1
5 | CSc1ccc2oc3c(=O)[nH]c(CN4CC[C@H](O)C4)nc3c2c1 [Compound 442, 2-{[(3S)-3-hydroxypyrrolidin-1-yl]methyl}-8-(methylthio)[1]benzofuro[3,2-d]pyrimidin-4(3H)-one] | < 10 | < 10 | < 10 | < 0.1
6 | O=C1CC[C@@H](c2nc3c(oc4ccc(Br)cc43)c(=O)[nH]2)N1 [Compound 523, 8-bromo-2-[(2S)-5-oxopyrrolidin-2-yl][1]benzofuro[3,2-d]pyrimidin-4(3H)-one] | < 10 | < 10 | < 10 | < 0.1
7 | CC(N)c1nc2c(oc3ccc(Br)cc32)c(=O)[nH]1 (stereo not shown) [Compound 175, 2-(1-aminoethyl)-8-bromo[1]benzofuro[3,2-d]pyrimidin-4(3H)-one] | < 10 | < 10 | < 10 | < 0.1
8 | C#Cc1ccc2oc3c(=O)[nH]c(CN4CC[C@H](O)C4)nc3c2c1 [Compound 458, 8-ethynyl-2-{[(3S)-3-hydroxypyrrolidin-1-yl]methyl}[1]benzofuro[3,2-d]pyrimidin-4(3H)-one] | < 10 | < 10 | < 10 | < 0.1
9 | O=c1[nH]c(CN2CCC(O)CC2)nc2c1oc1ccc(Br)cc12 [Compound 242, 8-bromo-2-[(4-hydroxypiperidin-1-yl)methyl][1]benzofuro[3,2-d]pyrimidin-4(3H)-one] | < 10 | < 10 | < 10 | < 0.1
10 | Cc1cc(C(=O)Nc2ccc(-c3nc4c(oc5ccc(Br)cc54)c(=O)[nH]3)c(Cl)c2)no1 [Compound 362, N-[4-(8-bromo-4-oxo-3,4-dihydro[1]benzofuro[3,2-d]pyrimidin-2-yl)-3-chlorophenyl]-5-methylisoxazole-3-carboxamide] | < 10 | < 10 | < 10 | 
11 | CN1CCCC1c1nc2c(oc3ccc(Br)cc32)c(=O)[nH]1 (stereo not shown) [Compound 273, 8-Bromo-2-(1-methylpyrrolidin-2-yl)[1]benzofuro[3,2-d]pyrimidin-4(3H)-one] | < 10 | < 10 | < 10 | < 0.1
12 | CC(C)(C)NCc1nc2c(oc3ccc(Br)cc32)c(=O)[nH]1 [Compound 503, 8-bromo-2-{[(1,1-dimethylethyl)amino]methyl}[1]benzofuro[3,2-d]pyrimidin-4(3H)-one] | < 10 | < 10 | < 10 | < 0.1
13 | CC[C@H](C)NCc1nc2c(oc3ccc(Br)cc32)c(=O)[nH]1 [Compound 522, 8-bromo-2-({[(1S)-1-methylpropyl]amino}methyl)[1]benzofuro[3,2-d]pyrimidin-4(3H)-one] | < 10 | < 10 | < 10 | < 0.1
14 | Nc1ccc(Cl)c(-c2nc3c(oc4ccc(Br)cc43)c(=O)[nH]2)c1 [Compound 134, 2-(5-amino-2-chlorophenyl)-8-bromo[1]benzofuro[3,2-d]pyrimidin-4(3H)-one] | < 10 | < 10 | < 10 | 
15 | C[C@H](N)c1nc2c(oc3ccc(Br)cc32)c(=O)[nH]1 [Compound 492, 2-[(1S)-1-aminoethyl]-8-bromo[1]benzofuro[3,2-d]pyrimidin-4(3H)-one] | < 10 | < 10 | < 10 | < 0.1
16 | NC(c1ccccc1)c1nc2c(oc3ccc(Br)cc32)c(=O)[nH]1 (stereo not shown) [Compound 174, 2-[amino(phenyl)methyl]-8-bromo[1]benzofuro[3,2-d]pyrimidin-4(3H)-one] | < 10 | < 10 | < 10 | < 0.1
17 | COc1c(Br)ccc2oc3c(=O)[nH]c(CN4CC[C@H](O)C4)nc3c12 [Compound 447, 8-bromo-2-{[(3S)-3-hydroxypyrrolidin-1-yl]methyl}-9-(methyloxy)[1]benzofuro[3,2-d]pyrimidin-4(3H)-one] | < 10 | < 10 | < 10 | 
18 | CCc1ccc2oc3c(=O)[nH]c(CN4CC[C@H](O)C4)nc3c2c1 [Compound 460, 8-ethyl-2-{[(3S)-3-hydroxypyrrolidin-1-yl]methyl}[1]benzofuro[3,2-d]pyrimidin-4(3H)-one] | < 10 | < 10 | < 10 | 
19 | Cc1cc2oc3c(=O)[nH]c(CN4CC[C@H](O)C4)nc3c2cc1Br [Compound 420, 8-bromo-2-{[(3S)-3-hydroxypyrrolidin-1-yl]methyl}-7-methyl[1]benzofuro[3,2-d]pyrimidin-4(3H)-one] | < 10 | < 10 | < 10 | 
20 | NCc1cccc(-c2nc3c(oc4ccc(Br)cc43)c(=O)[nH]2)c1 [Compound 302, 2-[3-(Aminomethyl)phenyl]-8-bromo[1]benzofuro[3,2-d]pyrimidin-4(3H)-one] | < 10 | < 10 | < 10 | 
21 | O=c1[nH]c(CN2CCC(CO)C2)nc2c1oc1ccc(Br)cc12 (stereo not shown) [Compound 287, 8-bromo-2-{[3-(hydroxymethyl)pyrrolidin-1-yl]methyl}[1]benzofuro[3,2-d]pyrimidin-4(3H)-one] | < 10 | < 10 | < 10 | < 0.1
22 | O=c1[nH]c(CN2CC3CCC2[C@H]3O)nc2c1oc1ccc(Br)cc12 (stereo partly drawn) [Compound 413, 8-bromo-2-{[(7S)-7-hydroxy-2-azabicyclo[2.2.1]hept-2-yl]methyl}[1]benzofuro[3,2-d]pyrimidin-4(3H)-one] | < 10 | < 10 | < 10 | < 0.1
23 | CS(=O)(=O)c1ccc(-c2nc3c(oc4ccc(Br)cc43)c(=O)[nH]2)c(Cl)c1 [Compound 128, 8-bromo-2-[2-chloro-4-(methylsulfonyl)phenyl][1]benzofuro[3,2-d]pyrimidin-4(3H)-one] | < 10 | < 10 | < 10 | < 0.1
24 | CC(C)NCc1nc2c(oc3ccc(Br)cc32)c(=O)[nH]1 [Compound 496, 8-bromo-2-{[(1-methylethyl)amino]methyl}[1]benzofuro[3,2-d]pyrimidin-4(3H)-one] | < 10 | < 10 | < 10 | < 0.1
